Experimental data published in ChEMBL document CHEMBL4376850, “1-Benzylpyrrolidine-3-amine-based BuChE inhibitors with anti-aggregating, antioxidant and metal-chelating properties as multifunctional agents against Alzheimer's disease” (Eur J Med Chem, 2020).
Activity calls are given as the source filed them. The calls are words filed in the database; no cut-off is given here.

What was measured:
[1] = biological target: Acetylcholinesterase (Electrophorus electricus) (UniProt O42275); test: Inhibition of Electrophorus electricus AChE at 10 uM using acetylthiocholine iodide as substrate preincubated for 5 mins followed by substrate addition and measured after 5 mins by Ellman's method relative to control
[2] = Antioxidant activity assessed as ABTS radical scavenging activity at 30 uM measured after 60 mins by spectrophotometric assay relative to control; assay type: functional
[3] = Antioxidant activity assessed as ABTS radical scavenging activity at 30 uM measured after 30 mins by spectrophotometric assay relative to control; assay type: functional
[4] = Antioxidant activity assessed as increase in total ferric ion reducing activity at 30 uM using FeCl3.H2O and TPTZ incubated for 30 mins by FRAP assay relative to control; assay type: functional; set-up: scale not given: the % may be the effect or the level left
[5] = Antioxidant activity assessed as ABTS radical scavenging activity at 30 uM measured after 5 mins by spectrophotometric assay relative to control; assay type: functional
[6] = Metal chelating activity assessed as Cu2+-compound complex formation at 50 uM after 30 mins by UV-Visible spectrophotometric method
[7] = biological target: Amyloid-beta precursor protein (Homo sapiens) (UniProt P05067); test: Inhibition of HFIP-pretreated amyloid beta (1 to 42) (unknown origin) aggregation at 10 uM after 48 hrs measured every 3 mins by thioflavin T-based fluorometric assay relative to control
[8] = Antioxidant activity assessed as increase in total ferric ion reducing activity at 30 uM using FeCl3.H2O and TPTZ incubated for 60 mins by FRAP assay relative to control; assay type: functional; set-up: scale not given: the % may be the effect or the level left
[9] = Antioxidant activity assessed as ABTS radical scavenging activity at 150 uM measured after 5 mins by spectrophotometric assay relative to control; assay type: functional
[10] = Antioxidant activity assessed as ABTS radical scavenging activity at 75 uM measured after 5 mins by spectrophotometric assay relative to control; assay type: functional
[11] = Antioxidant activity assessed as increase in total ferric ion reducing activity at 150 uM using FeCl3.H2O and TPTZ incubated for 5 mins by FRAP assay relative to control; assay type: functional; set-up: scale not given: the % may be the effect or the level left
[12] = Antioxidant activity assessed as increase in total ferric ion reducing activity at 150 uM using FeCl3.H2O and TPTZ incubated for 60 mins by FRAP assay relative to control; assay type: functional; set-up: scale not given: the % may be the effect or the level left
[13] = Antioxidant activity assessed as increase in total ferric ion reducing activity at 75 uM using FeCl3.H2O and TPTZ incubated for 60 mins by FRAP assay relative to control; assay type: functional; set-up: scale not given: the % may be the effect or the level left
[14] = Antioxidant activity assessed as increase in total ferric ion reducing activity at 75 uM using FeCl3.H2O and TPTZ incubated for 30 mins by FRAP assay relative to control; assay type: functional; set-up: scale not given: the % may be the effect or the level left
[15] = Antioxidant activity assessed as ABTS radical scavenging activity at 150 uM measured after 60 mins by spectrophotometric assay relative to control; assay type: functional
[16] = biological target: Cholinesterase (Equus caballus) (UniProt P81908); test: Inhibition of equine serum BuChE at 10 uM using butyrylthiocholine chloride as substrate pre-incubated for 5 mins followed by substrate addition and measured after 5 mins by Ellman's method relative to control
[17] = Antioxidant activity assessed as ABTS radical scavenging activity at 75 uM measured after 30 mins by spectrophotometric assay relative to control; assay type: functional
[18] = Antioxidant activity assessed as increase in total ferric ion reducing activity at 30 uM using FeCl3.H2O and TPTZ incubated for 5 mins by FRAP assay relative to control; assay type: functional; set-up: scale not given: the % may be the effect or the level left
[19] = Antioxidant activity assessed as ABTS radical scavenging activity at 150 uM measured after 30 mins by spectrophotometric assay relative to control; assay type: functional
[20] = Antioxidant activity assessed as ABTS radical scavenging activity at 75 uM measured after 60 mins by spectrophotometric assay relative to control; assay type: functional
[21] = biological target: T1, Beta-secretase 1 (Homo sapiens, UniProt P56817); conditions: 50 uM
[22] = biological target: Amyloid-beta precursor protein (Homo sapiens) (UniProt P05067); conditions: at 10 µM
Description: Inhibition of amyloid beta (1 to 42) (unknown origin) aggregation at 10 uM expressed in Escherichia coli BL21 (DE3) incubated for 24 hrs by thioflavin T-based fluorometric assay relative to control

[23] = Antioxidant activity assessed as increase in total ferric ion reducing activity at 75 uM using FeCl3.H2O and TPTZ incubated for 5 mins by FRAP assay relative to control; assay type: functional; set-up: scale not given: the % may be the effect or the level left
[24] = biological target: Microtubule-associated protein tau (Homo sapiens) (UniProt P10636); test: Inhibition of tau aggregation (unknown origin) at 10 uM expressed in Escherichia coli BL21 (DE3) incubated for 24 hrs by thioflavin T-based fluorometric assay relative to control
[25] = Antioxidant activity assessed as increase in total ferric ion reducing activity at 150 uM using FeCl3.H2O and TPTZ incubated for 30 mins by FRAP assay relative to control; assay type: functional; set-up: scale not given: the % may be the effect or the level left
[26] = biological target: T1, Beta-secretase 1
[27] = biological target: T2, Cholinesterase (Equus caballus, UniProt P81908)
Description: Inhibition of equine serum BuChE using butyrylthiocholine chloride as substrate pre-incubated for 5 mins followed by substrate addition and measured after 5 mins by Ellman's method

[28] = biological target: T2, Cholinesterase; test: Inhibition of equine BuChE
[29] = biological target: T1, Beta-secretase 1; test: Inhibition of BACE1 (unknown origin)

T1 sequence (P56817 whole entry): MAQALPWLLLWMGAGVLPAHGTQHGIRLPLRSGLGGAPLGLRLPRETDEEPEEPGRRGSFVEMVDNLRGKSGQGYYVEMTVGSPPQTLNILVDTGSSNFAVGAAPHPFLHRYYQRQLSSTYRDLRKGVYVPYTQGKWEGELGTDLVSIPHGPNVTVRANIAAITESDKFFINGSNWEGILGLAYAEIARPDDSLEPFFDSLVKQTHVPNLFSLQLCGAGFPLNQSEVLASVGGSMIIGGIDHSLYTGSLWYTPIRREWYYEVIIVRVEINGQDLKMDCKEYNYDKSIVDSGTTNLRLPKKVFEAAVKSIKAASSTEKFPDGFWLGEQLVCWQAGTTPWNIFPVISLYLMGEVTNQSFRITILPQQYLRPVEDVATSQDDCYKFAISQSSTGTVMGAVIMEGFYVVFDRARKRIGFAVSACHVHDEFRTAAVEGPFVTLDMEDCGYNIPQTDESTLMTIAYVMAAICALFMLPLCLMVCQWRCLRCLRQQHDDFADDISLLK
Chain of Acetylcholinesterase (Electrophorus electricus) (O42275 24-633 limits assumed): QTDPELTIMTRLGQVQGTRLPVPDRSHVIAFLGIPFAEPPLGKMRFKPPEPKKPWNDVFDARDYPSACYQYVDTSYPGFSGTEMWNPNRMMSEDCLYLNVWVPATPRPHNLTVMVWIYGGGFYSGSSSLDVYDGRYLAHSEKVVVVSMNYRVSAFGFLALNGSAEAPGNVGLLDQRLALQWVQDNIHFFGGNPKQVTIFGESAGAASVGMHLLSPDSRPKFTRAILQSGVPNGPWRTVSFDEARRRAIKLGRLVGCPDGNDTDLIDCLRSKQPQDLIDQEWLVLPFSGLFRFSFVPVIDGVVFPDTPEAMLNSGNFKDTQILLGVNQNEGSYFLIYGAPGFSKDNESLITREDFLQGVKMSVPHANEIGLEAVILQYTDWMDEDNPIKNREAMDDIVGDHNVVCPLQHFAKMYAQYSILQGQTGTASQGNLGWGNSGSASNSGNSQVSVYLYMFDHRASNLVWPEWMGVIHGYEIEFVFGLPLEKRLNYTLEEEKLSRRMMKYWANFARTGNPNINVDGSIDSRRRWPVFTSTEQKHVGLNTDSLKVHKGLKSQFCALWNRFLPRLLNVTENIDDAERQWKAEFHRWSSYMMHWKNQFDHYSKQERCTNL
Chain of Microtubule-associated protein tau (Homo sapiens) (P10636 whole entry): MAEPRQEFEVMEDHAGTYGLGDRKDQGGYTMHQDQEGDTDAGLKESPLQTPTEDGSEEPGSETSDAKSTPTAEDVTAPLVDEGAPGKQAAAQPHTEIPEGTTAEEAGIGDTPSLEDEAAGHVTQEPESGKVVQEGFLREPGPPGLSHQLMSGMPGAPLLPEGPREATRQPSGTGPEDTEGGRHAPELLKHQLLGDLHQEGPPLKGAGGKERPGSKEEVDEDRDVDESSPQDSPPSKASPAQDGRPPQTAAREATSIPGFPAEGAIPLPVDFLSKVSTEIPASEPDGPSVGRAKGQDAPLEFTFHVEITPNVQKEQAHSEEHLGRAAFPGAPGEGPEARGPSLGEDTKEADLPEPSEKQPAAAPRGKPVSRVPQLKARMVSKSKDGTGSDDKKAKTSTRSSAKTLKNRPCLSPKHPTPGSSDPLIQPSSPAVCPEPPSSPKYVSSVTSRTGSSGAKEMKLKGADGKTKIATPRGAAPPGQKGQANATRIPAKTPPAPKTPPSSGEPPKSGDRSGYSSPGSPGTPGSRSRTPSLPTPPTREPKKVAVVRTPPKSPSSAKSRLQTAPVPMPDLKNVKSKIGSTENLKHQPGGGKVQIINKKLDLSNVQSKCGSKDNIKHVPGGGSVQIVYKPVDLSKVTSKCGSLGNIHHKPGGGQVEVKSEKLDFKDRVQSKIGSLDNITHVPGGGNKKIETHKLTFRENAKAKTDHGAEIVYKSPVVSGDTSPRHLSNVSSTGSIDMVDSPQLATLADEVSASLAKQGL
Chain of Amyloid-beta precursor protein (Homo sapiens) (P05067 whole entry): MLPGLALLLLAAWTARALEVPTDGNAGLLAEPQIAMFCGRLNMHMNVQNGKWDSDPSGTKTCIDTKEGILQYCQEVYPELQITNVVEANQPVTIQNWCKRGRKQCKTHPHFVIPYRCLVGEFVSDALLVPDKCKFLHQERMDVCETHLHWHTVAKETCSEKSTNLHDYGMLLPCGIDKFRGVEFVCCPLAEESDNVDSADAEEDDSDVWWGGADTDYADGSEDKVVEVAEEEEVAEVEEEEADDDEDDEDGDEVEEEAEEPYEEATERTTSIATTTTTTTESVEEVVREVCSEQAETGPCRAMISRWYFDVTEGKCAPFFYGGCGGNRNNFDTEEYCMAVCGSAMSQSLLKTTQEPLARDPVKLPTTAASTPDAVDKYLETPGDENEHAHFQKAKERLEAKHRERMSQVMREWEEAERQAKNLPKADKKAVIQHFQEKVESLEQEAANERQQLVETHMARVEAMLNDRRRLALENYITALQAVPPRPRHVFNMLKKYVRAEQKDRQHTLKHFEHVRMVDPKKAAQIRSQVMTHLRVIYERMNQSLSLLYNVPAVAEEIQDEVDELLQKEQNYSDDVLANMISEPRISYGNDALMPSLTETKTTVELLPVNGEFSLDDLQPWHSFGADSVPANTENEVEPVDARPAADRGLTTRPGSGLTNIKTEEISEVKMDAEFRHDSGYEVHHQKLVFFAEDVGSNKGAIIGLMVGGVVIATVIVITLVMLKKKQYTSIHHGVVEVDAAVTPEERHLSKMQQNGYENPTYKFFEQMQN
T2 sequence (P81908 whole entry): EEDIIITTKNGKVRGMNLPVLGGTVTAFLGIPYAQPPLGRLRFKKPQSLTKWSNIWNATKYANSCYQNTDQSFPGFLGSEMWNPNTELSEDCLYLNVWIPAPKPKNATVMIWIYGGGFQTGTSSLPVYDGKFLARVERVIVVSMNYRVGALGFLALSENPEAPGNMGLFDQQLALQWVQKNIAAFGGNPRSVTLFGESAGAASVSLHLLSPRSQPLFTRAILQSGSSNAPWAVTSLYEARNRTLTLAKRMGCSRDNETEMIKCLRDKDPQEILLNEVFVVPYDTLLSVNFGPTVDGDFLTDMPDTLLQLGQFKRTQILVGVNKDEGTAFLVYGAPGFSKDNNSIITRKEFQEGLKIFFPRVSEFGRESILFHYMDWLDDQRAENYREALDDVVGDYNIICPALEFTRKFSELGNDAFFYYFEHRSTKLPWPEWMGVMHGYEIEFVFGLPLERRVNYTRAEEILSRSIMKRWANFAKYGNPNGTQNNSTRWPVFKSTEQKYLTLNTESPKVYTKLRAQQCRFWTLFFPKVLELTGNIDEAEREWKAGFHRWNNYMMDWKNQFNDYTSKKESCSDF
Chain of Cholinesterase (Equus caballus) (P81908 whole entry): as above

| Compound | inhibition [1] [%] | Activity [2] [%] | Activity [3] [%] | Activity [4] [%] | Activity [5] [%] | Activity [6] | Activity [8] [%] | Activity [9] [%] | Activity [10] [%] | Activity [11] [%] | Activity [12] [%] | Activity [13] [%] | Activity [14] [%] | Activity [15] [%] | inhibition [16] [%] | Activity [17] [%] | Activity [18] [%] | inhibition [21] [%] | inhibition [22] [%] | inhibition [24] [%] | further results |
| --- | --- | --- | --- | --- | --- | --- | --- | --- | --- | --- | --- | --- | --- | --- | --- | --- | --- | --- | --- | --- | --- |
| c1ccc(CN2CCN(CCNC3CCN(Cc4ccccc4)C3)CC2)cc1 (stereo not drawn) | < 10 | 43 | 36 | 13 | 18 | Active | 15 | 54 | 26 | 45 | 51 | 30 | 27 | 93 | 36.7 | 50 | 9 | 13.6 | 37.9 | 60.6 | inhibition [7]: 19.2%; Activity [19]: 84%; Activity [20]: 58%; Activity [23]: 17%; Activity [25]: 48% |
| O=C(CN1CCC(C(c2ccccc2)c2ccccc2)CC1)NC1CCN(Cc2ccccc2)C1 (stereo not drawn) | < 10 |  |  |  |  |  |  |  |  |  |  |  |  |  | 24.6 |  |  | 52.2 | 53.3 | 64.3 | inhibition [7]: 35.3%; IC50 [26]: 55.2 µM |
| c1ccc(CN2CCC(NCCN3CCN(C(c4ccccc4)c4ccccc4)CC3)C2)cc1 (stereo not drawn) | 27.6 | 47 | 41 | 8 | 22 | Active | 11 | 51 | 29 | 19 | 25 | 12 | 10 | 84 | 46.2 | 52 | 4 | 34.2 | 31.6 | 64 | inhibition [7]: 27.7%; Activity [19]: 77%; Activity [20]: 59%; Activity [23]: 4%; Activity [25]: 21% |
| c1ccc(CCC2CCN(CCNC3CCN(Cc4ccccc4)C3)CC2)cc1 (stereo not drawn) | < 10 | 18 | 12 | 2 | 8 | Active | 3 | 3 | 12 | 11 | 16 | 9 | 6 | 45 |  | 24 | 2 | 31 | 41 | 67.8 | IC50 [27]: 7.39 µM; Activity [19]: 29%; Activity [20]: 33%; Activity [23]: 1%; Activity [25]: 13% |
| O=C(CN1CCC(Cc2ccccc2)CC1)NC1CCN(Cc2ccccc2)C1 (stereo not drawn) | < 10 | 10 | 9 | 16 | 7 |  | 4 | 11 | 8 | 5 | 8 | 6 | 5 | 27 | 36.1 | 12 | 5 | 55.6 | 35 | 66.8 | inhibition [7]: 22.1%; Activity [19]: 20%; Activity [20]: 14%; Activity [23]: 2%; Activity [25]: 6% |
| c1ccc(CN2CCC(NCCN3CCC(C(c4ccccc4)c4ccccc4)CC3)C2)cc1 (stereo not drawn) | 25.2 |  |  |  |  |  |  |  |  |  |  |  |  |  | 44.2 |  |  | 54.3 | 31.7 | 60.4 | IC50 [26]: 49.8 µM |
| Cc1c(OCc2ccccc2)cccc1N1CCN(CC(=O)NC2CCN(Cc3ccccc3)C2)CC1 (stereo not drawn) |  |  |  |  |  | Active |  |  |  |  |  |  |  |  |  |  |  |  |  |  | IC50 [28]: 76 µM; IC50 [29]: 33 µM |
| c1ccc(CCC2CCCN(CCNC3CCN(Cc4ccccc4)C3)C2)cc1 (stereo not drawn) | 38.5 | 25 | 18 | 6 | 12 | Active | 7 | 33 | 12 | 9 | 11 | 4 | 3 | 76 |  | 26 | 4 | 42.6 | 41.3 | 57.2 | IC50 [27]: 3.26 µM; Activity [19]: 60%; Activity [20]: 36%; Activity [23]: 2%; Activity [25]: 9% |
